Values of other authors in patent US20210120811A1, “AQUEOUS CAPSULE SUSPENSION CONCENTRATES CONTAINING A HERBICIDAL SAFENER AND A PESTICIDAL ACTIVE SUBSTANCE” (priority 2018, published 2021).

## CC1(C)CON(Cc2ccc(Cl)cc2Cl)C1=O [DCPMI, 2-[(2,4-dichlorophenyl)methyl]-4,4′-dimethyl-3-isoxazolidinone]
  water solubility: 39.5 ppm
